The values below come from PubChem BioAssay AID248 (DTP/NCI, 2004).

For this assay, the system named is L1210 leukemia ip in BDF1 mice, survival T/C. The experiment in a line: NCI In Vivo Anticancer Drug Screen. Data for tumor model L1210 Leukemia (intraperitoneal) in B6D2F1 (BDF1) mice. The following applies: endpoint: mean survival time, higher = longer survival. Summed up:
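Tumor cells were implanted, animals were treated, and survival was followed. The result divides the treated measurement by the vehicle-control measurement.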

[1] abbreviates: dose: 25.0 mg/kg/injection, schedule: Q01DX009 (ip), vehicle: saline.
Setting [2] is: dose: 50.0 mg/kg/injection, schedule: Q01DX001 (ip), vehicle: other.
The mark [3] stands for this setting: dose: 100.0 mg/kg/injection, schedule: Q01DX009 (ip), vehicle: saline with Tween-80.

Several values for one entry are separate records, joined by “and”; a condition that tells them apart may be missing. Equal values may be shown once. Inconclusive results and toxic doses are left out. Peptide text beside a SMILES is read from it. * marks the point of attachment. Cbz = O=C(OCc1ccccc1)*; Bn = c1ccc(C*)cc1

As for `Cc1ccc([N+](=O)[O-])cc1`, the T/C (dose: 100.0 mg/kg/injection, schedule: Q04DX002 (ip), vehicle: Klucel (hydroxypropylcellulose) (HPC)) is 103 % of control; the T/C (dose: 200.0 mg/kg/injection, schedule: Q04DX002 (ip), vehicle: Klucel (hydroxypropylcellulose) (HPC)) was 103 % of control; the T/C (dose: 400.0 mg/kg/injection, schedule: Q04DX002 (ip), vehicle: Klucel (hydroxypropylcellulose) (HPC)) is 95 % of control.

On to `COC/C(C)=C/Br`, for which the T/C runs as follows: (dose: 100.0 mg/kg/injection, schedule: Q01DX009 (ip), vehicle: acetone) 97 % of control; (dose: 200.0 mg/kg/injection, schedule: Q01DX009 (ip), vehicle: acetone) 94 % of control; (dose: 400.0 mg/kg/injection, schedule: Q01DX009 (ip), vehicle: acetone) 94 % of control.

For the molecule `Cc1c2ccccc2c(CSC(=N)N)c2ccccc12`, the T/C was 119 % of control (dose: 4.0 mg/kg/injection, schedule: Q01DX009 (ip), vehicle: saline sonified); 112 % of control (dose: 4.0 mg/kg/injection, schedule: Q01DX009 (ip), vehicle: saline with Tween-80); 120 % of control (dose: 4.0 mg/kg/injection, schedule: Q01DX009 (ip), vehicle: saline); 109 % of control (dose: 6.25 mg/kg/injection, schedule: Q01DX009 (ip), vehicle: saline); 98 % of control (dose: 6.25 mg/kg/injection, schedule: Q04DX003 (ip), vehicle: saline); 117 % of control (dose: 8.0 mg/kg/injection, schedule: Q01DX009 (ip), vehicle: saline sonified). Moreover, the T/C (dose: 8.0 mg/kg/injection, schedule: Q01DX009 (ip), vehicle: saline with Tween-80) was 119 % of control; the T/C (dose: 12.5 mg/kg/injection, schedule: Q01DX009 (ip), vehicle: saline sonified) was 150 % of control; the T/C (dose: 12.5 mg/kg/injection, schedule: Q01DX009 (ip), vehicle: saline with Tween-80) was 108 % of control; the T/C (dose: 12.5 mg/kg/injection, schedule: Q01DX009 (ip), vehicle: saline) is 123 % of control; the T/C (dose: 12.5 mg/kg/injection, schedule: Q04DX003 (ip), vehicle: saline) is 108 % of control; the T/C (dose: 18.75 mg/kg/injection, schedule: Q01DX009 (ip), vehicle: saline sonified) is 95 % of control. Besides, the T/C (dose: 18.75 mg/kg/injection, schedule: Q01DX009 (ip), vehicle: saline with Tween-80) is 87 % of control; the T/C under setting [1] is 93 % of control; the T/C (dose: 25.0 mg/kg/injection, schedule: Q04DX003 (ip), vehicle: saline) is 114 % of control and 118 % of control.

Consider `CCCCCCCCC1CCCCC1`, for which the T/C was 105 % of control (dose: 50.0 mg/kg/injection, schedule: Q04DX002 (sc), vehicle: olive oil, sesame oil, peanut oil); 109 % of control (dose: 100.0 mg/kg/injection, schedule: Q04DX002 (sc), vehicle: olive oil, sesame oil, peanut oil); 109 % of control (dose: 200.0 mg/kg/injection, schedule: Q04DX002 (sc), vehicle: olive oil, sesame oil, peanut oil).

Take `CC(C)C(NC(=O)C(CSCc1ccccc1)NC(=O)OCc1ccccc1)C(N)=O` (stereo not drawn) (Cbz-Cys(Bn)-Val-NH2; configuration not given here): the T/C is, setting by setting: (dose: 100.0 mg/kg/injection, schedule: Q01DX009 (ip), vehicle: Klucel (hydroxypropylcellulose) (HPC)) 87 % of control; (dose: 200.0 mg/kg/injection, schedule: Q01DX009 (ip), vehicle: Klucel (hydroxypropylcellulose) (HPC)) 89 % of control.

Turning to `Nc1nc(SN=Nc2ccc(S(=O)(=O)O)cc2)c2[nH]cnc2n1`, the T/C is 110 % of control (dose: 11.0 mg/kg/injection, schedule: Q01DX Z (ip), vehicle: alkali diluted with saline); 120 % of control (dose: 17.0 mg/kg/injection, schedule: Q01DX Z (ip), vehicle: alkali diluted with saline); 112 % of control (dose: 25.0 mg/kg/injection, schedule: Q01DX Z (ip), vehicle: alkali diluted with saline); 104 % of control (dose: 38.0 mg/kg/injection, schedule: Q01DX Z (ip), vehicle: alkali diluted with saline).

For `CCCCCCCCCCCCC(=O)N1CCCC1`, the T/C runs as follows: (dose: 100.0 mg/kg/injection, schedule: Q04DX002 (ip), vehicle: saline) 104 % of control; (dose: 200.0 mg/kg/injection, schedule: Q04DX002 (ip), vehicle: saline) 104 % of control; (dose: 400.0 mg/kg/injection, schedule: Q04DX002 (ip), vehicle: saline) 96 % of control.

As to `CN(N=O)C(=O)NNC(=O)N(C)N=O`, the T/C is 103 % of control (dose: 6.25 mg/kg/injection, schedule: Q01DX Z (ip), vehicle: carboxymethylcellulose (CMC)); 152 % of control (dose: 20.0 mg/kg/injection, schedule: Q01DX Z (ip), vehicle: carboxymethylcellulose (CMC)); 89 % of control (dose: 50.0 mg/kg/injection, schedule: Q01DX Z (ip), vehicle: carboxymethylcellulose (CMC)).

`CCCCCCCCCOc1ccc(C=O)cc1OC`: the T/C reads like this: (dose: 100.0 mg/kg/injection, schedule: Q01DX001 (ip), vehicle: Klucel (hydroxypropylcellulose) (HPC)) 93 % of control; (dose: 200.0 mg/kg/injection, schedule: Q01DX001 (ip), vehicle: Klucel (hydroxypropylcellulose) (HPC)) 102 % of control; (dose: 400.0 mg/kg/injection, schedule: Q01DX001 (ip), vehicle: Klucel (hydroxypropylcellulose) (HPC)) 100 % of control.

Take `[Br][Ce]([Br])[Br]`: the T/C runs as follows: (dose: 100.0 mg/kg/injection, schedule: Q04DX003 (ip), vehicle: saline) 91 % of control; (dose: 200.0 mg/kg/injection, schedule: Q04DX003 (ip), vehicle: saline) 94 % of control; (dose: 400.0 mg/kg/injection, schedule: Q04DX003 (ip), vehicle: saline) 94 % of control.

Take `NNC(=O)OCCO`: the T/C by setting is: under setting [1], 103 % of control; (dose: 50.0 mg/kg/injection, schedule: Q01DX009 (ip), vehicle: saline) 104 % of control.

On to `C=CCc1cc(OC)c(OCc2ccccc2)cc1[N+](=O)[O-]`, for which the T/C by setting is: (dose: 100.0 mg/kg/injection, schedule: Q04DX002 (ip), vehicle: saline with Tween-80) 101 % of control; (dose: 200.0 mg/kg/injection, schedule: Q04DX002 (ip), vehicle: saline with Tween-80) 87 % of control; (dose: 400.0 mg/kg/injection, schedule: Q04DX002 (ip), vehicle: saline with Tween-80) 90 % of control.

In the case of `CCOC(=O)c1cc2ccccc2oc1=O`, the T/C runs as follows: (dose: 25.0 mg/kg/injection, schedule: Q01DX009 (ip), vehicle: saline with Tween-80) 102 % of control; (dose: 25.0 mg/kg/injection, schedule: Q04DX003 (ip), vehicle: saline with Tween-80) 103 % of control; under setting [2], 95 % of control; (dose: 50.0 mg/kg/injection, schedule: Q01DX009 (ip), vehicle: saline with Tween-80) 98 % of control; (dose: 50.0 mg/kg/injection, schedule: Q04DX003 (ip), vehicle: saline with Tween-80) 98 % of control and 89 % of control; under setting [3], 94 % of control. Besides, for the setting “dose: 100.0 mg/kg/injection, schedule: Q04DX003 (ip), vehicle: saline with Tween-80”, the T/C is 100 % of control and 103 % of control.

With `COc1ccc([N+](=O)[O-])cc1/C=C/C=O`, the T/C was 100 % of control (dose: 100.0 mg/kg/injection, schedule: Q01DX001 (ip), vehicle: saline); 92 % of control (dose: 200.0 mg/kg/injection, schedule: Q01DX001 (ip), vehicle: saline); 100 % of control (dose: 400.0 mg/kg/injection, schedule: Q01DX001 (ip), vehicle: saline).

Consider `Cc1ccc(NC(=O)CBr)cc1`, for which, under setting [2], the T/C is 96 % of control.

`CC(=O)NCC(=O)c1ccc(S(=O)(=O)c2ccccc2)cc1`: the T/C is, setting by setting: (dose: 50.0 mg/kg/injection, schedule: Q01DX001 (ip), vehicle: carboxymethylcellulose (CMC)) 104 % of control; (dose: 100.0 mg/kg/injection, schedule: Q01DX001 (ip), vehicle: carboxymethylcellulose (CMC)) 98 % of control; (dose: 200.0 mg/kg/injection, schedule: Q01DX001 (ip), vehicle: carboxymethylcellulose (CMC)) 96 % of control; (dose: 400.0 mg/kg/injection, schedule: Q01DX001 (ip), vehicle: carboxymethylcellulose (CMC)) 98 % of control.

On to `C[n+]1ccccc1CCC(=O)Nc1ccccc1`, for which, under setting [3], the T/C was 87 % of control.
